{"source": "paper PMC11520566", "about": "“Discovery of pyrazole-based analogs as CDK2 inhibitors with apoptotic-inducing activity: design, synthesis and molecular dynamics study” (RSC Advances, 2024)", "key": {"OVCAR-5": {"test_system": "OVCAR-5", "test": "NCI 60 five dose assay, Ovarian cancer", "type": "cell-based, human"}, "NCI-H322M [1]": {"test_system": "NCI-H322M", "test": "NCI 60 five dose assay, Non-small cell lung cancer", "type": "cell-based, human"}, "BT-549": {"test_system": "BT-549", "test": "NCI 60 five dose assay, Breast cancer", "type": "cell-based, human"}, "CDK2/cyclin A2": {"target": "T1, CDK2/cyclin A2 (Homo sapiens, UniProt P24941)", "T1 construct": "purchased Promega", "test": "In vitro CDK2/cyclin A2 enzyme inhibition assay (ADP-Glo)", "type": "biochemical", "procedure": "The studied pyrazoles 2a–g, 4, 7a–d, 8a and b, 9, and 10 were assessed for their in vitro CDK2/cyclin A2 enzyme inhibition assay at a concentration of 50 μM using the Promega CDK2/cyclinA2 kinase enzyme system coupled with the ADP-Glo assay.[32,33] The percentage enzyme activity was the lowest for five compounds, namely 4, 7a, 7d, 8a, and 9 with values of 24.7%, 17.5%, 11.5%, 27.1% and 14.5%, respectively.\nThe in vitro assay of CDK2/cyclin A2 protein kinase was carried out on all the synthesized compounds. The kinase assay was performed in a 96-well white plate with a reaction volume of […]. The reaction was performed in four steps as follows: 2.5 μL of the test compounds or 5% DMSO and 5 μL of CDK2/cyclin A2 enzyme (1.6 ng) was added, and then incubated at room temperature for 30 min. Then, 5 μL of 50 μM ATP. 0.1 μg μL^−1 histone H1 was added and incubated for 10 min. The reaction was stopped by adding 12.5 μL of ADP-Glo™ Reagent and incubated for 40 min. Then 25 μL of kinase detection reagent was added to each well and incubated for 60 min before detection with luminescence (Integration time 0.5–1 s).[25,32,33]"}, "SF-539": {"test_system": "SF-539", "test": "NCI 60 five dose assay, CNS cancer", "type": "cell-based, human"}, "NCI-H23": {"test_system": "NCI-H23", "test": "NCI 60 single dose screen, Non-small cell lung cancer", "type": "cell-based, human", "details": "single dose 10 μM", "procedure": "(§1) The newly synthesized pyrazoles 2a–g, 7a–d, 8a and b, 9, and 10 were submitted to the National Cancer Institute (NCI) Developmental Therapeutics Program (http://www.dtp.nci.nih.gov) for assessment of their potential antiproliferative activity against a panel of NCI 60 cancer cell lines. All compounds were approved for screening against the approved 60 cancer cell lines at a single dose of 10 μM. The human cancer cell lines were derived from 9 variant cancer types including leukemia, melanoma, lung, colon, CNS, ovarian, renal, prostate and breast cancers. The results are presented as percentage of growth inhibition (GI%) of the screened compounds against the full panel of cell lines.\n(§2) Under sterile conditions, the cell lines were grown in RPMI 1640 media (Gibco, NY, USA) supplemented with 10% fetal bovine serum (Biocell, CA, USA), and […] cell/mL was used to test the growth inhibition activity of the synthesized compounds. The compounds with concentrations ranging from 0.01 to 100 μM were prepared in phosphate buffer saline. Each compound was initially solubilized in dimethyl sulfoxide (DMSO); however, each final dilution contained less than 1% DMSO. Solutions of different concentrations (0.2 mL) were pipetted into the separate well of a microtiter tray in duplicate. Cell culture (1.8 mL) containing a cell population of […] cells per mL was pipetted into each well. Controls, containing only phosphate buffer saline and DMSO at identical dilutions, were also prepared in the same manner. These cultures were incubated in a humidified incubator at 37 °C. The incubator was supplied with 5% CO2 atmosphere. After 48 h, the cells in each well were diluted 10 times with saline and counted using a Coulter counter. The counts were corrected for the dilution.[34]"}, "NCI-H460": {"test_system": "NCI-H460", "test": "NCI 60 single dose screen, Non-small cell lung cancer", "type": "cell-based, human", "details": "single dose 10 μM", "procedure": "as §1, §2"}, "NCI-H322M [2]": {"test_system": "NCI-H322M", "test": "NCI 60 single dose screen, Non-small cell lung cancer", "type": "cell-based, human", "details": "single dose 10 μM", "procedure": "as §1, §2"}, "UACC-257": {"test_system": "UACC-257", "test": "NCI 60 five dose assay, Melanoma", "type": "cell-based, human"}, "HS 578T": {"test_system": "HS 578T", "test": "NCI 60 five dose assay, Breast cancer", "type": "cell-based, human"}, "SF-295": {"test_system": "SF-295", "test": "NCI 60 five dose assay, CNS cancer", "type": "cell-based, human"}, "[3]": {"details": "Homo sapiens, read-out: LC50 (the source's name)"}}}
{"molecule": "CC(=NNc1ccc(S(N)(=O)=O)cc1)c1ccc(NN=C2C(=O)NN=C2Nc2ccccc2)cc1", "note": "[Compound 4, 4-(2-(1-(4-(2-(5-oxo-3-(phenylamino)-1,5-dihydro-4H-pyrazol-4-ylidene)hydrazinyl)phenyl)ethylidene)hydrazinyl)benzene sulfonamide]", "values": [{"measurement": "GI50", "setting": "OVCAR-5; Homo sapiens", "result": 11, "unit": "µM"}, {"measurement": "CC50", "setting": "OVCAR-5; [3]", "result": 54.2, "unit": "µM"}, {"measurement": "Percent Growth", "setting": "OVCAR-5; Log10 Concentration -4.0 Molar", "result": -88, "unit": "%"}, {"measurement": "Percent Growth", "setting": "OVCAR-5; Log10 Concentration -5.0 Molar", "result": 56, "unit": "%"}, {"measurement": "Percent Growth", "setting": "OVCAR-5; Log10 Concentration -6.0 Molar", "result": 93, "unit": "%"}, {"measurement": "Percent Growth", "setting": "OVCAR-5; Log10 Concentration -7.0 Molar", "result": 96, "unit": "%"}, {"measurement": "Percent Growth", "setting": "OVCAR-5; Log10 Concentration -8.0 Molar", "result": 95, "unit": "%"}, {"measurement": "GI50", "setting": "NCI-H322M [1]; Homo sapiens", "result": 3.72, "unit": "µM"}, {"measurement": "CC50", "setting": "NCI-H322M [1]; [3]", "result": 41.9, "unit": "µM"}, {"measurement": "Percent Growth", "setting": "NCI-H322M [1]; Log10 Concentration -4.0 Molar", "result": -93, "unit": "%"}, {"measurement": "Percent Growth", "setting": "NCI-H322M [1]; Log10 Concentration -5.0 Molar", "result": 21, "unit": "%"}, {"measurement": "Percent Growth", "setting": "NCI-H322M [1]; Log10 Concentration -6.0 Molar", "result": 89, "unit": "%"}, {"measurement": "Percent Growth", "setting": "NCI-H322M [1]; Log10 Concentration -7.0 Molar", "result": 99, "unit": "%"}, {"measurement": "Percent Growth", "setting": "NCI-H322M [1]; Log10 Concentration -8.0 Molar", "result": 103, "unit": "%"}, {"measurement": "GI50", "setting": "BT-549; Homo sapiens", "result": 2.83, "unit": "µM"}, {"measurement": "CC50", "setting": "BT-549; [3]", "result": 31.1, "unit": "µM"}, {"measurement": "Percent Growth", "setting": "BT-549; Log10 Concentration -4.0 Molar", "result": -100, "unit": "%"}, {"measurement": "Percent Growth", "setting": "BT-549; Log10 Concentration -5.0 Molar", "result": -1, "unit": "%"}, {"measurement": "Percent Growth", "setting": "BT-549; Log10 Concentration -6.0 Molar", "result": 92, "unit": "%"}, {"measurement": "Percent Growth", "setting": "BT-549; Log10 Concentration -7.0 Molar", "result": 105, "unit": "%"}, {"measurement": "Percent Growth", "setting": "BT-549; Log10 Concentration -8.0 Molar", "result": 94, "unit": "%"}, {"measurement": "percentage enzyme activity", "setting": "CDK2/cyclin A2; at 50 μM", "result": 24.7, "unit": "%"}, {"measurement": "IC50", "setting": "CDK2/cyclin A2; n = 3, read-out: IC50 against CDK2/cyclin A2", "result": 3.82, "unit": "µM"}, {"measurement": "Relative activity", "setting": "CDK2/cyclin A2; supplement S1, DMSO = 100, screen at 50 μM", "result": 24.7}, {"measurement": "GI50", "setting": "SF-539; Homo sapiens", "result": 1.58, "unit": "µM"}, {"measurement": "CC50", "setting": "SF-539; [3]", "result": 8.56, "unit": "µM"}, {"measurement": "Percent Growth", "setting": "SF-539; Log10 Concentration -4.0 Molar", "result": -100, "unit": "%"}, {"measurement": "Percent Growth", "setting": "SF-539; Log10 Concentration -5.0 Molar", "result": -59, "unit": "%"}, {"measurement": "Percent Growth", "setting": "SF-539; Log10 Concentration -6.0 Molar", "result": 77, "unit": "%"}, {"measurement": "Percent Growth", "setting": "SF-539; Log10 Concentration -7.0 Molar", "result": 94, "unit": "%"}, {"measurement": "Percent Growth", "setting": "SF-539; Log10 Concentration -8.0 Molar", "result": 89, "unit": "%"}, {"measurement": "GI%", "setting": "NCI-H23", "result": 99.80, "unit": "%"}, {"measurement": "GI%", "setting": "NCI-H460", "result": 91.13, "unit": "%"}, {"measurement": "GI%", "setting": "NCI-H322M [2]", "result": 90.78, "unit": "%"}, {"measurement": "GI50", "setting": "UACC-257; Homo sapiens", "result": 3.97, "unit": "µM"}, {"measurement": "CC50", "setting": "UACC-257; [3]", "result": 75.5, "unit": "µM"}, {"measurement": "Percent Growth", "setting": "UACC-257; Log10 Concentration -4.0 Molar", "result": -59, "unit": "%"}, {"measurement": "Percent Growth", "setting": "UACC-257; Log10 Concentration -5.0 Molar", "result": 17, "unit": "%"}, {"measurement": "Percent Growth", "setting": "UACC-257; Log10 Concentration -6.0 Molar", "result": 99, "unit": "%"}, {"measurement": "Percent Growth", "setting": "UACC-257; Log10 Concentration -7.0 Molar", "result": 93, "unit": "%"}, {"measurement": "Percent Growth", "setting": "UACC-257; Log10 Concentration -8.0 Molar", "result": 89, "unit": "%"}, {"measurement": "GI50", "setting": "HS 578T; Homo sapiens", "result": 3.31, "unit": "µM"}, {"measurement": "CC50", "setting": "HS 578T; [3]", "result": "> 100", "unit": "µM"}, {"measurement": "Percent Growth", "setting": "HS 578T; Log10 Concentration -4.0 Molar", "result": -28, "unit": "%"}, {"measurement": "Percent Growth", "setting": "HS 578T; Log10 Concentration -5.0 Molar", "result": 11, "unit": "%"}, {"measurement": "Percent Growth", "setting": "HS 578T; Log10 Concentration -6.0 Molar", "result": 92, "unit": "%"}, {"measurement": "Percent Growth", "setting": "HS 578T; Log10 Concentration -7.0 Molar", "result": 93, "unit": "%"}, {"measurement": "Percent Growth", "setting": "HS 578T; Log10 Concentration -8.0 Molar", "result": 85, "unit": "%"}, {"measurement": "GI50", "setting": "SF-295; Homo sapiens", "result": 3.67, "unit": "µM"}, {"measurement": "CC50", "setting": "SF-295; [3]", "result": 38.7, "unit": "µM"}, {"measurement": "Percent Growth", "setting": "SF-295; Log10 Concentration -4.0 Molar", "result": -95, "unit": "%"}, {"measurement": "Percent Growth", "setting": "SF-295; Log10 Concentration -5.0 Molar", "result": 15, "unit": "%"}, {"measurement": "Percent Growth", "setting": "SF-295; Log10 Concentration -6.0 Molar", "result": 96, "unit": "%"}, {"measurement": "Percent Growth", "setting": "SF-295; Log10 Concentration -7.0 Molar", "result": 96, "unit": "%"}, {"measurement": "Percent Growth", "setting": "SF-295; Log10 Concentration -8.0 Molar", "result": 83, "unit": "%"}]}
